In patent US20050282743A1, “Molecular interactions in cells” (Arbor Vita Corporation, priority 2001, published 2005):
Like-named read-outs stand apart in the source and are kept apart here. Peptide text beside a SMILES is read from it. * marks the point of attachment. Biotin = O=C1N[C@H]2[C@H](CS[C@H]2CCCCC(=O)*)N1

What was measured:
Assay in all cases: Apparent affinity (Kd) by titration of PL peptide in the G assay
Type in all cases: binding
[1] = target: T1, PDZ-domain polypeptide (GST/PDZ fusion protein) (Homo sapiens, UniProt Q8TEW0); conditions: PDZ PAR3, PDZ Domain 3
T1 construct: made in house; host or cells: E. coli (DH5alpha, BL21 or JM109)
How it was run: (§1)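 A fixed concentration of GST/PDZ fusion protein, 5 ug/ml by default, was mixed in solution with increasing labeled PL peptide (e.g. 0.1 uM-1 mM). Reaction times ranged from 10 minutes to 2 days at 4-37° C. Complexes were separated from free peptide and detected via the label as in the G assay, apparent affinity coming from the saturating concentration.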

[2] = target: T2, PDZ-domain polypeptide (GST/PDZ fusion protein) (Homo sapiens, UniProt Q9NRD5); conditions: Peptide Optimal Conc (Kd by titration of the PL peptide), PDZ PICK1, PDZ Domain 1
T2 construct: made in house; host or cells: E. coli (DH5alpha, BL21 or JM109)
How it was run: as §1

[3] = target: T3, PDZ-domain polypeptide (GST/PDZ fusion protein) (Homo sapiens, UniProt P78352)
T3 construct: made in house; host or cells: E. coli (DH5alpha, BL21 or JM109)
How it was run: as §1

[4] = target: T4, PDZ-domain polypeptide (GST/PDZ fusion protein) (Homo sapiens, UniProt Q15700); conditions: PDZ DLG2, PDZ Domain 2
T4 construct: made in house; host or cells: E. coli (DH5alpha, BL21 or JM109)
How it was run: as §1

[5] = target: T5, PDZ-domain polypeptide (GST/PDZ fusion protein) (Homo sapiens, UniProt Q12959); conditions: read-out: Peptide Optimal Conc (Kd by titration of the PL peptide)
T5 construct: made in house; host or cells: E. coli (DH5alpha, BL21 or JM109)
How it was run: as §1

T1 sequence (Q8TEW0 whole entry, the tested form may be a part): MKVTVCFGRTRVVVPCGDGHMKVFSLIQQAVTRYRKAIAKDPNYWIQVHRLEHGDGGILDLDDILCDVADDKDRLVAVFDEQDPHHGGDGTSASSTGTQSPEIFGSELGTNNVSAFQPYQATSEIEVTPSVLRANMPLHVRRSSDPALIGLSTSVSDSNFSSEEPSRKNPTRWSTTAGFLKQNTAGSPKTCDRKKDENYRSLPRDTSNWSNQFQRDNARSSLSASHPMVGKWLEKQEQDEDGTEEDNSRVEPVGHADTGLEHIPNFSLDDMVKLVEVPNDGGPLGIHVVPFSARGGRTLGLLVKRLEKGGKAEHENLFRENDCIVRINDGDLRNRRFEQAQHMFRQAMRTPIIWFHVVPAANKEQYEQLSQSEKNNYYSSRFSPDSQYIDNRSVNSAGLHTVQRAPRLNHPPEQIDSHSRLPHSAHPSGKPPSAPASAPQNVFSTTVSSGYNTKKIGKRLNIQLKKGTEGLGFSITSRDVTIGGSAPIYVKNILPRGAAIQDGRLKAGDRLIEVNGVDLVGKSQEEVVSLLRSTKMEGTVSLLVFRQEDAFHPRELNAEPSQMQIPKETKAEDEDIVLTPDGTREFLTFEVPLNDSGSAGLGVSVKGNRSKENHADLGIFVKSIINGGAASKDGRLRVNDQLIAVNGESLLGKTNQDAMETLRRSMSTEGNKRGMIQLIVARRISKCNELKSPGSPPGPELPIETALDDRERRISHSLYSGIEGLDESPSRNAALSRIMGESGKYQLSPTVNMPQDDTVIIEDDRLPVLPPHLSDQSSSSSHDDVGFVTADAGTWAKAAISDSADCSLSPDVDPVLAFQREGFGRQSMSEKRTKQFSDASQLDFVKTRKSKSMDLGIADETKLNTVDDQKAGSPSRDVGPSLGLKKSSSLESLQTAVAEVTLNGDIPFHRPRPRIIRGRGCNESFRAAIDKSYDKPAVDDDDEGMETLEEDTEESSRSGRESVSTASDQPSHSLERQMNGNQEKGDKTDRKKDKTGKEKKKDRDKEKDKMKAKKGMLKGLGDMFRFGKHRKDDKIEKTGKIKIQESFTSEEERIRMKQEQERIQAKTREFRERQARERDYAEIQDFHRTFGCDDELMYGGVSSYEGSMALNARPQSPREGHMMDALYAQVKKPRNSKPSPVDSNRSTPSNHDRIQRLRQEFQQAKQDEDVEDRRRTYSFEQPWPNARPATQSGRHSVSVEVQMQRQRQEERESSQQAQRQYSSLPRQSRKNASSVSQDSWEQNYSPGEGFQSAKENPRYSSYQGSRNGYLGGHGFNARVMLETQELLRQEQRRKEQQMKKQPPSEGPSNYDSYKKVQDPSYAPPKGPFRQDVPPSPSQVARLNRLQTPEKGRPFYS
T5 sequence (Q12959 whole entry, the tested form may be a part): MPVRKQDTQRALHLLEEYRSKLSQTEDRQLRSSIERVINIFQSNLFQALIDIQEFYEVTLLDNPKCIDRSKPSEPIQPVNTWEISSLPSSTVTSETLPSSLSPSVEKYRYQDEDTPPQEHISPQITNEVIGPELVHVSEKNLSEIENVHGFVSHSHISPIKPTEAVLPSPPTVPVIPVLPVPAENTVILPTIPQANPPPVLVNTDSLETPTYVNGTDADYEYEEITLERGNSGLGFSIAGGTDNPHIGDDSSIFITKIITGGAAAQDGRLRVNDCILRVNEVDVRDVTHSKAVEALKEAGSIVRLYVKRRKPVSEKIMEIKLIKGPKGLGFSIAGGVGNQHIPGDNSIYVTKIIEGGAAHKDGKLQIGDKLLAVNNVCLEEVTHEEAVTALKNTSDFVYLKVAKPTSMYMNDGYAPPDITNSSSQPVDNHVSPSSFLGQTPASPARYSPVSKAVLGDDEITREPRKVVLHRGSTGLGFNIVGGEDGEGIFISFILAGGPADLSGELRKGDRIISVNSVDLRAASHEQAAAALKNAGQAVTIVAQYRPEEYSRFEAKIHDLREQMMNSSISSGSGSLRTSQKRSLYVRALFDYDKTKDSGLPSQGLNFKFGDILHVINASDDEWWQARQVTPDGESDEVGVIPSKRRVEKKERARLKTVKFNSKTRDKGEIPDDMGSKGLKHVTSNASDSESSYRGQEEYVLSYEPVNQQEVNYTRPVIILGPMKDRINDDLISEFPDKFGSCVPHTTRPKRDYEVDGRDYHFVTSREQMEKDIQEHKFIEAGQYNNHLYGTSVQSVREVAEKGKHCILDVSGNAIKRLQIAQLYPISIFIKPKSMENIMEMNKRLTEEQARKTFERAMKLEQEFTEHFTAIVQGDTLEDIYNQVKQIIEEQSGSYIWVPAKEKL
T3 sequence (P78352 whole entry, the tested form may be a part): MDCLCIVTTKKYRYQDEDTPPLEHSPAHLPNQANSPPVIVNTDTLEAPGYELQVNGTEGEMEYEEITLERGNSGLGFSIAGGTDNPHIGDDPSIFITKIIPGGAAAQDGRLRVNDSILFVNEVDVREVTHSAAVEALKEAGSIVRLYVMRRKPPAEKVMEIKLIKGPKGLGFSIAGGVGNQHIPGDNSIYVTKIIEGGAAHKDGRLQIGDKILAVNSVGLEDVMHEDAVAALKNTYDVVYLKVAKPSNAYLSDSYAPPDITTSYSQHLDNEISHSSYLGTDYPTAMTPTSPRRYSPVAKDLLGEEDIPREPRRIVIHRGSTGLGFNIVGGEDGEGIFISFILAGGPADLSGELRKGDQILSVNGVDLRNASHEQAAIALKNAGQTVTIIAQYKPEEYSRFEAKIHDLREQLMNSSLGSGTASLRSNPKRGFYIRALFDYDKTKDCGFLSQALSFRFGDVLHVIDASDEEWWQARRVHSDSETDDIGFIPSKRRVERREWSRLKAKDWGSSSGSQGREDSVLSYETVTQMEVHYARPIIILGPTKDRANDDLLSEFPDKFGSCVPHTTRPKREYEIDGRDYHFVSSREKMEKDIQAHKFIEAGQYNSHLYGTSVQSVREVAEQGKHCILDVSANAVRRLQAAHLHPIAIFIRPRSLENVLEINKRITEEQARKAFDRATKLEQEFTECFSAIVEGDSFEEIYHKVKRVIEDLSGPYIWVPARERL
T4 sequence (Q15700 whole entry, the tested form may be a part): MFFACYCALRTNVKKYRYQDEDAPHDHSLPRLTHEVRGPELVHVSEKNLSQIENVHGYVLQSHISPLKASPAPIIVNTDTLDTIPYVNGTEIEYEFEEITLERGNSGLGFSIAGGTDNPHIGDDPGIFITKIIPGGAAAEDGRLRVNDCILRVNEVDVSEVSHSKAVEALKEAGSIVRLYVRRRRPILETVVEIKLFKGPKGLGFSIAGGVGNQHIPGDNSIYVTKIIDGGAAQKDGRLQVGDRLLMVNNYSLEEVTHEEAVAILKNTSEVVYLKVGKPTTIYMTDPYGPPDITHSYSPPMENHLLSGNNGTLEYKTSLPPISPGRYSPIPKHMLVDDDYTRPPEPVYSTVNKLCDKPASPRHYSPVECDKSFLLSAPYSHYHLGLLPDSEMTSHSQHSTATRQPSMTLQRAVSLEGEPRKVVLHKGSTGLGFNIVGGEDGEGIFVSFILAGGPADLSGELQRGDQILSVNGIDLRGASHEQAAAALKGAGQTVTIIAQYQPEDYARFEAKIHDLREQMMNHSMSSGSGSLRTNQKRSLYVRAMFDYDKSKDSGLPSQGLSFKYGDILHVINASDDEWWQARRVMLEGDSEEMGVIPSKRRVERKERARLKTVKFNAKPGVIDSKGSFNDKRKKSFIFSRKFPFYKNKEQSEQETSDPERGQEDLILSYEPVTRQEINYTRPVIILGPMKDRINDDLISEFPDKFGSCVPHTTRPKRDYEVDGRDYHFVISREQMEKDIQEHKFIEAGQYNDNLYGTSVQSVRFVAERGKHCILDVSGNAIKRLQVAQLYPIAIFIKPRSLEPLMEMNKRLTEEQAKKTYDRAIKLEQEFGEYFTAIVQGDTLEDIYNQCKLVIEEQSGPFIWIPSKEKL
T2 sequence (Q9NRD5 whole entry, the tested form may be a part): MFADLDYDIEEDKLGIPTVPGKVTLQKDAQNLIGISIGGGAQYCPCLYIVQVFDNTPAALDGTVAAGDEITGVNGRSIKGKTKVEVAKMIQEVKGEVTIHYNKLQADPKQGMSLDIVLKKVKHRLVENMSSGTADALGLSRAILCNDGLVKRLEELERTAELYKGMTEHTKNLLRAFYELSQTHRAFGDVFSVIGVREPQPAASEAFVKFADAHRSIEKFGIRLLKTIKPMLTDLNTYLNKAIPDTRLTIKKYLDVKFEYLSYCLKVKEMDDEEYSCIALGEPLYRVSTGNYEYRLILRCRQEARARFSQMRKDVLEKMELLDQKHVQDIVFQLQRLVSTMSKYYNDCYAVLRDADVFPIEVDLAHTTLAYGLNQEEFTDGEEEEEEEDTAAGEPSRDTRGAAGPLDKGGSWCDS

CC[C@H](C)[C@H](NC(=O)[C@H](C)NC(=O)[C@H](CC(C)C)NC(=O)[C@H](Cc1c[nH]c2ccccc12)NC(=O)[C@H](Cc1c[nH]cn1)NC(=O)[C@H](CCC(N)=O)NC(=O)[C@H](CC(C)C)NC(=O)[C@H](CCC(N)=O)NC(=O)[C@H](Cc1ccccc1)NC(=O)[C@H](CCC(N)=O)NC(=O)[C@H](CCCNC(=N)N)NC(=O)[C@@H](NC(=O)[C@H](CC(=O)O)NC(=O)[C@H](CCCNC(=N)N)NC(=O)[C@H](CCC(N)=O)NC(=O)[C@H](C)NC(=O)[C@@H](NC(=O)[C@H](CC(C)C)NC(=O)[C@H](Cc1c[nH]cn1)NC(=O)[C@H](Cc1c[nH]cn1)NC(=O)CCCC[C@@H]1SC[C@@H]2NC(=O)N[C@@H]21)C(C)C)[C@@H](C)CC)C(=O)O [noradrenaline transporter] (Biotin-HHLVAQRDIRQFQLQHWLAI-OH; C-terminus assumed)
Kd ([1]; Peptide Optimal Conc (Kd by titration of the PL peptide)): 600 nM
Kd [2]: 1000 nM

CC[C@H](C)[C@H](NC(=O)[C@H](Cc1ccc(O)cc1)NC(=O)[C@H](CC(C)C)NC(=O)[C@H](CCC(N)=O)NC(=O)[C@H](Cc1c[nH]cn1)NC(=O)[C@H](CO)NC(=O)[C@H](C)NC(=O)[C@H](CC(C)C)NC(=O)[C@@H](NC(=O)[C@H](CC(=O)O)NC(=O)[C@H](CCSC)NC(=O)[C@H](Cc1ccccc1)NC(=O)[C@@H]1CCCN1C(=O)[C@H](CCCNC(=N)N)NC(=O)[C@@H](NC(=O)[C@H](CC(C)C)NC(=O)[C@H](CC(N)=O)NC(=O)[C@H](CC(=O)O)NC(=O)[C@@H](NC(=O)[C@H](CO)NC(=O)CCCC[C@@H]1SC[C@@H]2NC(=O)N[C@@H]21)[C@@H](C)O)C(C)C)[C@@H](C)O)C(=O)O [presenilin-2] (Biotin-STDNLVRPFMDTLASHQLYI-OH; C-terminus assumed)
Kd ([1]; titration of the PL peptide, read-out: Peptide Optimal Conc (Kd, dissociation constant)): 2000 nM

CC[C@H](C)[C@H](NC(=O)[C@H](CO)NC(=O)[C@@H](NC(=O)[C@H](Cc1ccccc1)NC(=O)[C@H](CO)NC(=O)CCCC[C@@H]1SC[C@@H]2NC(=O)N[C@@H]21)[C@@H](C)O)C(=O)N[C@@H](CC(C)C)C(=O)N[C@H](C(=O)N[C@@H](CS)C(=O)N[C@@H](Cc1c[nH]cn1)C(=O)N[C@@H](CCC(N)=O)C(=O)N[C@@H](CCCNC(=N)N)C(=O)N[C@@H](CCCNC(=N)N)C(=O)N[C@H](C(=O)N[C@@H](CCC(N)=O)C(=O)N[C@@H](CCCNC(=N)N)C(=O)N[C@@H](CCCCN)C(=O)N[C@@H](CCC(=O)O)C(=O)N[C@H](C(=O)N[C@H](C(=O)N[C@@H](C)C(=O)O)C(C)C)[C@@H](C)O)[C@@H](C)O)[C@@H](C)O [GluR5-2 (rat)]
Kd ([3]; PDZ PSD95, PDZ Domain 3, titration of the PL peptide, read-out: Peptide Optimal Conc (Kd, dissociation constant)): 100 nM

CSCC[C@H](NC(=O)[C@H](C)NC(=O)[C@H](CCCNC(=N)N)NC(=O)CNC(=O)[C@@H](NC(=O)[C@H](Cc1c[nH]c2ccccc12)NC(=O)[C@H](CCCNC(=N)N)NC(=O)CNC(=O)CCCC[C@@H]1SC[C@@H]2NC(=O)N[C@@H]21)[C@@H](C)O)C(=O)N[C@@H](CO)C(=O)N[C@@H](C)C(=O)N[C@@H](Cc1c[nH]c2ccccc12)C(=O)N[C@@H](CCCCN)C(=O)N1CCC[C@H]1C(=O)N[C@H](C(=O)N[C@@H](CCCNC(=N)N)C(=O)N[C@@H](CCCNC(=N)N)C(=O)N[C@@H](CCC(=O)O)C(=O)N[C@H](C(=O)N[C@@H](CCC(=O)O)C(=O)N[C@H](C(=O)O)C(C)C)[C@@H](C)O)[C@@H](C)O [HPV E6 #35 (modified)] (Biotin-GRWTGRAMSAWKPTRRETEV-OH; C-terminus assumed)
Kd ([4]; read-out: Peptide Optimal Conc (Kd by titration of the PL peptide)): 200 nM

CC[C@H](C)[C@H](NC(=O)[C@H](CCCCN)NC(=O)[C@@H](NC(=O)[C@H](CO)NC(=O)[C@@H]1CCCN1C(=O)[C@H](Cc1ccccc1)NC(=O)[C@@H](NC(=O)[C@@H](NC(=O)[C@H](CCCNC(=N)N)NC(=O)[C@H](CCC(=O)O)NC(=O)[C@H](CC(C)C)NC(=O)[C@H](CC(C)C)NC(=O)[C@H](CC(C)C)NC(=O)[C@@H](NC(=O)CNC(=O)[C@@H](NC(=O)CCCC[C@@H]1SC[C@@H]2NC(=O)N[C@@H]21)C(C)C)[C@@H](C)O)C(C)C)[C@@H](C)CC)C(C)C)C(=O)N[C@@H](C)C(=O)N[C@H](C(=O)N[C@@H](CC(C)C)C(=O)N[C@H](C(=O)O)C(C)C)[C@@H](C)O [Adenovirus E4 Type9]
Kd ([4]; Protein Optimal Conc 0.5): 50 nM
Kd ([5]; PDZ DLG1, PDZ Domain 1, Protein Optimal Conc 0.5): 100 nM
Kd ([5]; PDZ DLG1, PDZ Domain 2, Protein Optimal Conc 0.3): 30 nM
Kd ([3]; PDZ PSD95, PDZ Domain 1, Protein Optimal Conc 5, read-out: Peptide Optimal Conc (Kd by titration of the PL peptide)): 100 nM
